Laboratory results reported in patent publication US20220257552A1, “METHODS OF PRESCREENING AND TREATING BREAST CANCERS WITH SELECTIVE ANDROGEN RECEPTOR MODULATORS” (priority 2021, published 2022).

Experiments:
[1] = Phase 3 trials in non-small cell lung cancer (muscle wasting); assay type: in vivo, human; conditions: 3 mg daily
Source text: (§1) These include: 1. Protocol G100401, a Phase 1 single ascending dose study in 96 healthy, young, male volunteers; 2. Protocol G100402, a Phase 1 multiple ascending dose study in 50 healthy, young, male volunteers, and 23 elderly male volunteers with truncal obesity; 3. Protocol G100503, a Phase 1 single dose pharmacokinetic study to assess the effect of a dosage regimen that simulates a sustained release formulation to an immediate release formulation in 18 healthy, young male volunteers and 18 postmenopausal women; 4. Protocol G100506, a Phase 1 single dose pharmacokinetic study to assess the relative bioavailability of a 3 mg hard shell capsule formulation to be used during continued clinical development and to assess the effect of food on the pharmacokinetics of the 3 mg softgel formulation in 27 healthy, young, male volunteers; 5. Protocol 006, a Phase 1 single dose and multiple dose pharmacokinetic study in 24 postmenopausal, Japanese women; 6. Protocol G200501, a Phase 2 study in 60 postmenopausal women and 60 elderly men to assess lean body mass and physical function; 7. Protocol 003, a Phase 1b study in 44 postmenopausal women; 8.

[2] = Completed and ongoing clinical studies, tolerability; assay type: in vivo, human; conditions: single doses up to 100 mg, multiple doses up to 30 mg once daily up to 14 days
Source text: as §1, with “8. Protocol G200502, a Phase 2b study in 159 men and postmenopausal women with cancer to assess lean body mass and physical function; 9.” for “8.”

[3] = Phase 1 multiple ascending dose study G100402; assay type: in vivo, human
Source text: as §1, with “8. Protocol G200502, a Phase 2b study in 159 men and postmenopausal women with cancer to assess lean body mass and physical function; 9.” for “8.”
Both 10 mg and 30 mg daily doses were evaluated in Protocol G100402 for up to 14 days. […]

[4] = system: MCF-7 cells expressing AR; assay: MCF-7-AR cell viability (SRB); assay type: cell-based; conditions: 6 days
Experimental: After 6 days of treatment, cells were harvested, and the number of cells was counted. […] Medium was changed after 3 days and re-treated. Cells were fixed after 6 days of treatment and the cell viability was measured by SRB assay. […] Medium was changed, and the cells were re-treated on days 4 and 7. Medium was collected, pooled from triplicates, and stored in −80° C. After 10 days of treatment, cells were fixed, and cell viability was measured using SRB. MCF-7 cells stably transfected with GFP (MCF-7-GFP) were plated in growth medium. Twenty-four hours after plating, cells were fed with the conditioned medium obtained from patient-derived fibroblasts as indicated above. Cells were fed for 10 days with conditioned medium, with medium changed on days 4 and 7. After 10 days of treatment, cells were fixed, and the viability was measured by SRB assay. […] AR-positive, but ER-negative HCI-9 PDX was surgically implanted as 1 mm^3 fragments under the mammary fat pad in NSG mice (n=8-10/group). […] Tumor volume was measured thrice weekly. […] ER-α from HCI-13 was cloned into pCR3.1 vector. […] Values are expressed as average±S.E. from n=3-4/data point.
Cells were plated at varying densities in growth medium in 96 well plates. Cells were treated as indicated in the figures and viability measured using sulforhodamine B (SRB) or the number of cells counted using Coulter counter.

MDA-MB-231-AR tumors = assay: Affymetrix microarray of MDA-MB-231-AR tumors; assay type: in vivo, mice
Experimental: RNA was extracted from MDA-MB-231-AR tumors (n=5/group) treated with vehicle or compound of Formula VIII. RNA was pooled and Affymetrix microarray was performed to determine the change in expression of gene signature.
Microarray Analysis was performed on RNA from MDA-MB-231-AR and MCF-7-AR tumors in order to identify and compare changes in gene expression in ER-negative (MDA-MB-231-AR; triple negative) an ER-positive (MCF-7-AR; triple positive) breast cancer tumors treated with a compound of Formula VIII (30 mg/kg/day p.o. for 4 weeks). Affymetrix analysis of the xenografts was done on pooled samples of the xenografts. The analysis included ˜70,000 sequences with ˜30,000 genes and variations thereof represented, as well as microRNA's. RNA was isolated and expression of genes was evaluated using microarray (Affymetrix Human Gene ST 2.0 array). Expression of genes in compound of Formula VIII-treated samples was compared with the expression in vehicle-treated samples.

With `C[C@](O)(COc1ccc(C#N)cc1)C(=O)Nc1ccc(C#N)c(C(F)(F)F)c1` [Formula IX, (S)—N-(4-Cyano-3-(trifluoromethyl)phenyl)-3-(4-cyanophenoxy)-2-hydroxy-2-methylpropanamide] as the molecule, how does the lean body mass [1] read?
Its lean body mass is “increased”.

And the tolerability [2]?
The tolerability was “generally well-tolerated”.

And the “subjects with ALT increases above two times the ULN” value ([3]; 30 mg dose group)?
Its value is “six”.

What about the tolerability ([3]; daily doses up to 30 mg, healthy male volunteers) of the same molecule?
The tolerability was “well tolerated”.

And the “proliferation / cell viability” value [4]?
Its value is “inhibited proliferation”.

Which Aurora kinase expression (MDA-MB-231-AR tumors; Table 8) does the source give for `C[C@](O)(COc1ccc(C#N)cc1)C(=O)Nc1ccc(C#N)c(Cl)c1` [Formula VIII, (S)—N-(3-chloro-4-cyanophenyl)-3-(4-cyanophenoxy)-2-hydroxy-2-methylpropanamide] here?
The Aurora kinase expression was “Decreased”.

And the “BUB1 S/T kinase expression” value (MDA-MB-231-AR tumors; Table 8)?
Its value is “Decreased”.

What about the CENPE expression (MDA-MB-231-AR tumors; Table 8) of the same molecule?
Its CENPE expression is “Decreased”.

And the EHMT2 expression (MDA-MB-231-AR tumors; Table 8)?
Its EHMT2 expression is “Decreased”.

What about the ERCC1 expression (MDA-MB-231-AR tumors; Table 8) of the same molecule?
Its ERCC1 expression is “Decreased”.

And the IGFBP3 expression (MDA-MB-231-AR tumors; Table 8)?
Its IGFBP3 expression is “Decreased”.

What about the ITGA2 expression (MDA-MB-231-AR tumors; Table 8) of the same molecule?
Its ITGA2 expression is “Decreased”.

And the NQO1 expression (MDA-MB-231-AR tumors; Table 8)?
Its NQO1 expression is “Increased”.

And the PARP1 expression (MDA-MB-231-AR tumors; Table 8)?
Its PARP1 expression is “Decreased”.

And the POLD1 expression (MDA-MB-231-AR tumors; Table 8)?
The POLD1 expression was “Decreased”.

And the PTPRJ expression (MDA-MB-231-AR tumors; Table 8)?
The PTPRJ expression was “Increased”.

What about the β-Adrenoceptor2 expression (MDA-MB-231-AR tumors; Table 8) of the same molecule?
The β-Adrenoceptor2 expression was “Decreased”.

What about the FKBP51 induction (MDA-MB-231-AR tumors; Table 10) of the same molecule?
Its FKBP51 induction is “∞”.

What about the IRS2 induction (MDA-MB-231-AR tumors; Table 10) of the same molecule?
Its IRS2 induction is 4.40 Fold.

And the MUC1 induction (MDA-MB-231-AR tumors; Table 10)?
The MUC1 induction was 9 Fold.

And the PTGS2 induction (MDA-MB-231-AR tumors; Table 10)?
Its PTGS2 induction is 14 Fold.

What about the SNAI2/SLUG induction (MDA-MB-231-AR tumors; Table 10) of the same molecule?
The SNAI2/SLUG induction was 2.10 Fold.

And the “genes Up” value (MDA-MB-231-AR tumors; more than 2 fold vs vehicle)?
Its value is 720.
